ChEMBL document CHEMBL1201862, “PubChem BioAssay data set” (2004)
Calls of active or inactive are those of the source.

What was measured:
Assay type in all cases: functional
[1] = target: T1, Sentrin-specific protease 8 (Homo sapiens, UniProt Q96LD8);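 also: kinetic enzyme assay of SENP8 cleaving a Nedd8 protein substrate, dose-response confirmation of screening hits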
T1 sequence (Q96LD8 whole entry): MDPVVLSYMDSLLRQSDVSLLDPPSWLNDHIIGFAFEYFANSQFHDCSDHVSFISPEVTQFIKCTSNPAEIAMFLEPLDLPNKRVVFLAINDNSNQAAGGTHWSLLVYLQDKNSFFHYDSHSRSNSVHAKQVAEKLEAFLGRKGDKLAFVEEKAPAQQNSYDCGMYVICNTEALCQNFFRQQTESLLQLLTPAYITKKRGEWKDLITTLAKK

[2] = target: T2, Sentrin-specific protease 7 (Homo sapiens, UniProt Q9BQF6); test: inhibition of human SENP7 cleavage activity – biochemical, luminescence, set 2, SAR follow-up (AID 588600)
T2 sequence (Q9BQF6 whole entry): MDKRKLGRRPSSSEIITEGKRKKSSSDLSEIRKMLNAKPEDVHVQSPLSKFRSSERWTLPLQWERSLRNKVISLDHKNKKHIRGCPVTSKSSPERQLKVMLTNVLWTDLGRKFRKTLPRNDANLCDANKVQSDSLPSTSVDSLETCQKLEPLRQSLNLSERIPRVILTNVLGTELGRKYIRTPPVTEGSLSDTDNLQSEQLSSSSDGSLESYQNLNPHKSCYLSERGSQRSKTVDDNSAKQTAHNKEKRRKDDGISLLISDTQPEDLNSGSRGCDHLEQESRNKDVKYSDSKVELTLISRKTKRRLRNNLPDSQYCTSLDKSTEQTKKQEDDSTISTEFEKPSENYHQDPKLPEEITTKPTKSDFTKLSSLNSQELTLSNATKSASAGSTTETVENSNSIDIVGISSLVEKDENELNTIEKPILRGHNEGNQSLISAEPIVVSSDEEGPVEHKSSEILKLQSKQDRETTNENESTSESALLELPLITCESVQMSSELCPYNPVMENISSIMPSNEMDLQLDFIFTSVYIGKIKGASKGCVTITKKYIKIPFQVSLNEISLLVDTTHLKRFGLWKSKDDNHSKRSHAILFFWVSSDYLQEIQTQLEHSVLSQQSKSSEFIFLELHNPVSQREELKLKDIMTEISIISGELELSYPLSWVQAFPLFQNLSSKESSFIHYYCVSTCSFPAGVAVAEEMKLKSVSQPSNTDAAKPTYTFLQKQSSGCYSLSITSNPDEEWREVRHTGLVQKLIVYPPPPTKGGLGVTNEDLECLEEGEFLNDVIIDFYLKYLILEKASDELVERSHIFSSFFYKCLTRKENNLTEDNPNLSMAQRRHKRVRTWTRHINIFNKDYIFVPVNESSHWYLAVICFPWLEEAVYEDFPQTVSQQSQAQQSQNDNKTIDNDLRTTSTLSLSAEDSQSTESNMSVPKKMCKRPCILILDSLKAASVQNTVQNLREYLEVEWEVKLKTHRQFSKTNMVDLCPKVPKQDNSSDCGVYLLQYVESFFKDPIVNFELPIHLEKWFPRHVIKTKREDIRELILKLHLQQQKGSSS

[3] = target: T2, Sentrin-specific protease 7; test: inhibition of human SENP7 cleavage activity – biochemical, luminescence, SAR follow-up (AID 504497)
Hexokinase-1 = target: T3, Hexokinase-1 (Homo sapiens, UniProt P19367); test: SAR analysis of small molecule inhibitors of hexokinase domain containing I (HKDC1) in the hexokinase 1 selectivity assay. [Related pubchem assays (depositor defined):AID493160, AID493190]
T3 sequence (P19367 whole entry): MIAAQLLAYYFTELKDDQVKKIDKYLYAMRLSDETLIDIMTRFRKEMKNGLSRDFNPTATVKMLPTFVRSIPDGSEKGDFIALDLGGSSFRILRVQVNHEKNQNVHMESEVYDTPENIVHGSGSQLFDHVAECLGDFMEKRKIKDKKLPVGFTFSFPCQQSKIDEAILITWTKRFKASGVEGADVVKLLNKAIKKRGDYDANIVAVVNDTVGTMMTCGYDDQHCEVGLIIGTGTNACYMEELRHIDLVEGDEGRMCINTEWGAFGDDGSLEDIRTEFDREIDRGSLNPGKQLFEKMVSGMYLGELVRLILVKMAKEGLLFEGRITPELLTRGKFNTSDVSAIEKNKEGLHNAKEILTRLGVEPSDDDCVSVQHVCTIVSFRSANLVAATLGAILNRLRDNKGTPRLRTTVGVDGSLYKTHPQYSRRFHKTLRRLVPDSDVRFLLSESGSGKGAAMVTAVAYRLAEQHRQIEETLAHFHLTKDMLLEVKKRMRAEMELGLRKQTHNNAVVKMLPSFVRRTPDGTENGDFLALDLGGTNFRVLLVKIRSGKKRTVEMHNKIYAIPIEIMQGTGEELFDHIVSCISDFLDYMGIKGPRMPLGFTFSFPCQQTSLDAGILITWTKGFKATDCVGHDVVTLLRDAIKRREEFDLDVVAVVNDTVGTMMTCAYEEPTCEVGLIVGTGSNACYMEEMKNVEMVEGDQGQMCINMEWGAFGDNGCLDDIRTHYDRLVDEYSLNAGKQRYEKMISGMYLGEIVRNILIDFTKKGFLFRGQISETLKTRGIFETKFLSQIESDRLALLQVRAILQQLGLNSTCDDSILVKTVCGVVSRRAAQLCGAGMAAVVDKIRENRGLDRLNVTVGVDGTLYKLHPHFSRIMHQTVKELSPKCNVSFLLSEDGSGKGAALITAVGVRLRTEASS

[4] = disruptors of CAL PDZ reporter peptide binding – biochemical, fluorescence polarization, untagged CAL PDZ, dry powder, dose response (AID 602255)
BJ = test: BJ-TERT fibroblast viability loss – cell-based, RAS-independent, luminescence, dose response (AID 1933); conditions: Homo sapiens

Compound: COc1ccccc1N1C(=O)Cc2ccccc2C1=O
- IC50 [1]: 2.04 µM (active)

Compound: Oc1ccccc1/C=C/c1noc(-c2ccccc2O)n1
- IC50 [2]: 43.8 µM (active)
- IC50 [3]: 2.5 µM (active)

Compound: O=C(O)CSc1cc(NS(=O)(=O)c2ccc(Cl)cc2)c2ccccc2c1O
- IC50 (Hexokinase-1): > 80 µM (inactive)
- AC50 [4]: 56.1 µM (active)

Compound: Cc1nn(-c2ccccc2)c(Cl)c1CN(C(=O)CCl)c1ccc(Cl)cc1
- EC50 (BJ): 0.707 µM (inconclusive)
